Measured values published in patent publication US12049452B2, “Olaparib hydroxybenzoic acid cocrystals and their pharmaceutical use” (NUFORMIX TECHNOLOGIES LIMITED, priority 2021, dated 2024).

What was measured:
[1] = low solubility and low permeability; cited from earlier work
[2] = Dissolution study in simulated intestinal fluid (FaSSIF V2), Pion inForm instrument; assay type: physicochemical; conditions: FaSSIF V2 pH 6.5, 37° C.
Text: As described in US 2018/0113216, the oral bioavailability of olaparib is dependent on both the dissolution rate and overall solubility of the drug in the gastro-intestinal (GI) tract. US 2018/0113216 describes how olaparib has a propensity for efflux by P-gp at concentrations limiting its permeability and thus limiting its absorption from the GI tract. This efflux ratio is lowered as the concentration of drug in solution increases. Thus, to minimize this efflux issue and achieve optimal absorption and bioavailability it is essential to find a form of olaparib that has as high a dissolution rate as possible in the GI tract and that also maintains a high level of solubility over a sufficient period of time to allow the drug to be absorbed into the blood stream. […] The dissolution study was carried out using 50 mL simulated intestinal fluid (FaSSIF V2) at pH 6.5 (37° C.) using a quantity of each olaparib form equivalent to 25 mg olaparib. […] Detection and quantification of olaparib was performed by in-situ UV-spectroscopy using a fibre-optic probe, allowing instantaneous data collection from the point of sample introduction. UV absorption data was converted to mg/mL (±0.2 mg/mL) using a previously determined pH dependent molar extinction coefficients to quantitate the amount of dissolved drug.

[3] = Gravimetric Vapour Sorption (GVS) moisture sorption isotherm; assay type: physicochemical; conditions: for XRPD analysis of the sample post GVS (cocrystal structure): after GVS isotherm
Method: Gravimetric Vapour Sorption (GVS): Sorption isotherms were obtained using a SMS DVS Intrinsic moisture sorption analyzer, controlled by DVS Intrinsic Control software. The sample temperature was maintained at 25° C. by the instrument controls. The humidity was controlled by mixing streams of dry and wet nitrogen, with a total flow rate of 200 ml/min. The relative humidity was measured by a calibrated Rotronic probe (dynamic range of 1.0-100% RH), located near the sample. The weight change, (mass relaxation) of the sample as a function of % RH was constantly monitored by a microbalance (accuracy ±0.005 mg).
Typically, 5-30 mg of sample was placed in a tared mesh stainless steel basket under ambient conditions. The sample was loaded and unloaded at 40% RH and 25° C. (typical room conditions). A moisture sorption isotherm was performed as outlined in Table 1 (2 scans per complete cycle). The standard isotherm was performed at 25° C. at 10% RH intervals over a 0-90% RH range. Typically, a double cycle (4 scans) was carried out. Data analysis was carried out within Microsoft Excel using the DVS Analysis Suite. The sample was recovered after completion of the isotherm and re-analyzed by XRPD.

[4] = Solid-state stability study under accelerated storage conditions (XRPD form change, HPLC purity); assay type: physicochemical; conditions: 7 days; for Purity: HPLC
Method: Bruker D8 X-Ray Powder Diffraction (XRPD) Characterization: X-ray powder diffraction patterns for the samples were acquired on a Bruker D8 diffractometer using Cu Ka radiation (40 kV, 40 mA) and a θ-2θ goniometer fitted with a Ge monochromator. The incident beam passes through a 2.0 mm divergence slit followed by a 0.2 mm anti-scatter slit and knife edge. The diffracted beam passes through an 8.0 mm receiving slit with 2.5° Soller slits followed by the Lynxeye Detector. The software used for data collection and analysis was Diffrac Plus XRD Commander and Diffrac Plus EVA respectively. Samples were run under ambient conditions over an angular range of 2° to 42° 2θ (using a step size of 0.05° 2θ and a step time of 0.5 seconds) as flat plate specimens using powder as received. The sample was prepared on a polished, zero-background (510) silicon wafer by gently pressing onto the flat surface or packed into a cut cavity. The sample was rotated in its own plane. Small D8 disc recess holders were used to prepare samples.
Chemical Purity Determination by HPLC: Purity analysis was performed on an Agilent HP1100/Infinity II 1260 series system equipped with a diode array detector and using Open LAB software.
A study was carried out to examine the physical stability of the olaparib hydroxybenzoic acid cocrystals with respect to solid form conversion or signs of decomposition over time under accelerated storage conditions. The 1:1 olaparib gentisic acid cocrystal, 2:1 olaparib gentisic acid cocrystal, 1:1 olaparib 2,4-dihydroxybenzoic acid cocrystal, 2:1 2,4-dihydroxybenzoic acid cocrystal, and the 2:1 olaparib 4-hydroxybenzoic acid cocrystal were separately stored at 40° C./75% relative humidity and 25° C./97% relative humidity for 7 days. After this time, all samples remained as white solids with no signs of deliquescence. Each sample was analysed by XRPD to observe any potential form changes and by HPLC to determine purity so as to determine any signs of decomposition.

[5] = across the 0-90% relative humidity range at 25° C. under nitrogen

SMILES | BCS class [1] | amount of olaparib dissolved after particle size reduction ([2]; any one timepoint over a 30-minute time period, compared with form A as supplied) | rate of dissolution after particle size reduction ([2]; compared with olaparib form A as supplied) | reversibly absorbed moisture (GVS) [3, 5] [% w/w] | XRPD analysis of the sample post GVS (cocrystal structure) [3] | reversibly absorbed moisture (GVS) ([3]; between 0 and 5% RH, 25° C.) [% w/w] | XRPD Analysis ([4]; 25° C./97% RH) | Purity ([4]; 25° C./97% RH) [%] | XRPD Analysis ([4]; 40° C./75 RH) | Purity ([4]; 40° C./75 RH) [%]
O=C(c1cc(Cc2n[nH]c(=O)c3ccccc23)ccc1F)N1CCN(C(=O)C2CC2)CC1 [olaparib, 4-[(3-{[4-(cyclopropylcarbonyl)piperazin-1-yl]carbonyl}-4-fluorophenyl)methyl]phthalazin-1(2H)-one] | class 4 | – | – | – | – | – | – | – | – | –
O=C(c1cc(Cc2n[nH]c(=O)c3ccccc23)ccc1F)N1CCN(C(=O)C2CC2)CC1 [milled olaparib form A] | – | overall decrease in the amount of olaparib dissolved | lower rate of dissolution | – | – | – | – | – | – | –
O=C(O)c1ccc(O)cc1O.O=C(c1cc(Cc2n[nH]c(=O)c3ccccc23)ccc1F)N1CCN(C(=O)C2CC2)CC1.O=C(c1cc(Cc2n[nH]c(=O)c3ccccc23)ccc1F)N1CCN(C(=O)C2CC2)CC1 | – | – | – | 4.5 | unchanged | 2.5 | No change | 99.64 | No change | 99.45
O=C(O)c1ccc(O)cc1O.O=C(c1cc(Cc2n[nH]c(=O)c3ccccc23)ccc1F)N1CCN(C(=O)C2CC2)CC1 | – | – | – | – | – | – | No change | 99.22 | No change | 99.43
O=C(O)c1cc(O)ccc1O.O=C(c1cc(Cc2n[nH]c(=O)c3ccccc23)ccc1F)N1CCN(C(=O)C2CC2)CC1 [1:1 olaparib gentisic acid cocrystal] | – | – | – | – | – | – | No change | 99.79 | No change | 99.70
O=C(O)c1cc(O)ccc1O.O=C(c1cc(Cc2n[nH]c(=O)c3ccccc23)ccc1F)N1CCN(C(=O)C2CC2)CC1.O=C(c1cc(Cc2n[nH]c(=O)c3ccccc23)ccc1F)N1CCN(C(=O)C2CC2)CC1 [2:1 olaparib gentisic acid cocrystal] | – | – | – | 3.4 | unchanged | 1.6 | No change | 99.64 | No change | 99.59
O=C(O)c1ccc(O)cc1.O=C(c1cc(Cc2n[nH]c(=O)c3ccccc23)ccc1F)N1CCN(C(=O)C2CC2)CC1.O=C(c1cc(Cc2n[nH]c(=O)c3ccccc23)ccc1F)N1CCN(C(=O)C2CC2)CC1 | – | – | – | 3.4 | unchanged | 1.5 | No change | 99.69 | No change | 99.70
